Laboratory results as given in ChEMBL document CHEMBL5625222, “Design, synthesis, and biological evaluation of 1,6-naphthyridine-2-one derivatives as novel FGFR4 inhibitors for the treatment of colorectal cancer” (Eur J Med Chem, 2023).
Activity calls are given as the source filed them. No cut-off for these calls is given here.

Assays:
HCT-116 [1] = assay: Antitumor activity against human HCT-116 cells xenografted in BALB/c mouse assessed as upregulation of E-cad expression in tumor at 10 mg/kg,ip administrated for 2 weeks by Western blotting analysis; format: functional, organism-based
HCT-116 [2] = assay: Antitumor activity against human HCT-116 cells xenografted in BALB/c mouse assessed as change in cell morphology at 10 mg/kg,ip administrated for 2 weeks by hematoxylin and eosin staining based analysis; format: functional, organism-based
[3] = Toxicity in BALB/c mouse xenografted with human HCT-116 cells assessed as change in body weight at 10 mg/kg,ip administrated for 2 weeks; format: organism-based; settings: in vivo, 336 h
[4] = Toxicity in BALB/c mouse xenografted with human HCT-116 cells assessed as change in heart weight at 10 mg/kg,ip administrated for 2 weeks; format: organism-based; settings: in vivo, 336 h
HCT-116 [5] = assay: Antitumor activity against human HCT-116 cells xenografted in BALB/c mouse assessed as decrease in Ki67 expression in tumor tissue at ip administrated for 2 weeks by immunohistochemical analysis; format: functional, organism-based
HCT-116 [6] = assay: cells; settings: Homo sapiens, HCT-116, 48 h
Description: Antiproliferative activity against human HCT-116 cells assessed as inhibition of cell growth incubated for 48 hrs by MTT assay

[7] = Toxicity in BALB/c mouse xenografted with human HCT-116 cells assessed as change in serum creatinine level at 10 mg/kg,ip administrated for 2 weeks; format: organism-based; settings: in vivo, 336 h
[8] = Toxicity in ICR mouse assessed as change in liver weight at 60 mg/kg,po administrated for 1 week; format: organism-based; settings: in vivo, 168 h, time 1 weeks
HCT-116 [9] = assay: Anti-migration activity in human HCT-116 cells assessed as downregulation of FAK phosphorylation by Western blotting analysis; format: functional, cell-based
SW480 [10] = assay: Antiproliferative activity against human SW480 cells assessed as inhibition of cell growth incubated for 48 hrs by EdU staining method; format: functional, cell-based
[11] = Hepatotoxicity in ICR mouse assessed as change in serum AST level at 60 mg/kg,po administrated for 1 week; format: toxicity, organism-based; settings: in vivo, 168 h, time 1 weeks
HCT-116 [12] = assay: Antitumor activity against human HCT-116 cells xenografted in BALB/c mouse assessed as downregulation of FAK phosphorylation in tumor at 20 mg/kg,ip administrated for 2 weeks by Western blotting analysis; format: functional, organism-based
RKO [13] = assay: Antiproliferative activity against human RKO cells assessed as inhibition of cell growth incubated for 48 hrs by EdU staining method; format: functional, cell-based
[14] = Toxicity in BALB/c mouse xenografted with human HCT-116 cells assessed as change in serum ALT level at 20 mg/kg,ip administrated for 2 weeks; format: organism-based; settings: in vivo, 336 h
HCT-116 [15] = assay: Antitumor activity against human HCT-116 cells xenografted in BALB/c mouse assessed as tumor growth inhibition at 20 mg/kg,ip administrated for 2 weeks relative to control; format: functional; settings: HCT-116, 336 h, read-out: TGI
[16] = Toxicity in BALB/c mouse xenografted with human HCT-116 cells assessed as change in serum creatinine level at 20 mg/kg,ip administrated for 2 weeks; format: organism-based; settings: in vivo, 336 h
SW480 [17] = assay: Induction of apoptosis in human SW480 cells assessed as downregulation of ratio of Bcl-2/Bax expression at 3 to 12 uM incubated for 48 hrs by Western blotting analysis; format: functional, cell-based; settings: dose 3-12 µM
SW480 [18] = assay: Anti-migration activity in human SW480 cells assessed as loss of actin cytoskeletal fibers at 3 to 12 uM by immunofluorescence assay; format: functional, cell-based; settings: dose 3-12 µM
HCT-116 [19] = assay: Induction of cell cycle arrest in human HCT-116 cells assessed as accumulation of cells at G2/M phase incubated for 48 hrs by propidium iodide staining based flow cytometry; format: functional
[20] = Hepatotoxicity in ICR mouse assessed as change in serum ALT level at 20 mg/kg,po administrated for 1 week; format: toxicity, organism-based; settings: in vivo, 168 h, time 1 weeks
[21] = Toxicity in BALB/c mouse xenografted with human HCT-116 cells assessed as change in lung weight at 10 mg/kg,ip administrated for 2 weeks; format: organism-based; settings: in vivo, 336 h
[22] = Toxicity in ICR mouse assessed as histopathological change in kidney at 20 mg/kg,po administrated for 1 week by hematoxylin and eosin staining analysis; format: organism-based; settings: in vivo, 168 h, time 1 weeks
[23] = Toxicity in BALB/c mouse xenografted with human HCT-116 cells assessed as change in kidney weight at 20 mg/kg,ip administrated for 2 weeks; format: organism-based; settings: in vivo, 336 h
[24] = Toxicity in ICR mouse assessed as change in spleen weight at 60 mg/kg,po administrated for 1 week; format: organism-based; settings: in vivo, 168 h, time 1 weeks
HCT-116 [25] = assay: Antitumor activity against human HCT-116 cells xenografted in BALB/c mouse assessed as decrease in E-Cad expression in tumor tissue at ip administrated for 2 weeks by immunohistochemical analysis; format: functional, organism-based
[26] = Toxicity in ICR mouse assessed as change in heart weight at 20 mg/kg,po administrated for 1 week; format: organism-based; settings: in vivo, 168 h, time 1 weeks
[27] = Toxicity in ICR mouse assessed as change in liver weight at 20 mg/kg,po administrated for 1 week; format: organism-based; settings: in vivo, 168 h, time 1 weeks
[28] = Toxicity in BALB/c mouse xenografted with human HCT-116 cells assessed as change in spleen weight at 20 mg/kg,ip administrated for 2 weeks; format: organism-based; settings: in vivo, 336 h
[29] = Hepatotoxicity in ICR mouse assessed as change in serum ALT level at 60 mg/kg,po administrated for 1 week; format: toxicity, organism-based; settings: in vivo, 168 h, time 1 weeks
[30] = Toxicity in ICR mouse assessed as change in kidney weight at 20 mg/kg,po administrated for 1 week; format: organism-based; settings: in vivo, 168 h, time 1 weeks
[31] = Drug uptake in BALB/c mouse colon at 20 mg/kg,ip administrated for 2 hrs by LC-MS analysis; format: ADME, organism-based; settings: in vivo
SW480 [32] = assay: Induction of cell cycle arrest in human SW480 cells assessed as downregulation of cyclin B1 expression at 1.5 to 6 uM by immunoblotting analysis; format: functional, cell-based; settings: dose 1.5-6 µM
[33] = Toxicity in ICR mouse assessed as change in heart weight at 60 mg/kg,po administrated for 1 week; format: organism-based; settings: in vivo, 168 h, time 1 weeks
SW480 [34] = assay: Anti-migration activity in human SW480 cells assessed as change in FAK expression at 3 to 12 uM by Western blotting analysis; format: functional, cell-based; settings: dose 3-12 µM
HCT-116 [35] = assay: Antiproliferative activity against human HCT-116 cells assessed as inhibition of cell growth incubated for 48 hrs by EdU staining method; format: functional, cell-based
HCT-116 [36] = assay: Antitumor activity against human HCT-116 cells xenografted in BALB/c mouse assessed as chromatin condensation at 20 mg/kg,ip administrated for 2 weeks by hematoxylin and eosin staining based analysis; format: functional, organism-based
RKO [37] = assay: Anti-migration activity in human RKO cells assessed as change in FAK distribution at 3 to 12 uM by immunofluorescence assay; format: functional, cell-based; settings: dose 3-12 µM
RKO [38] = assay: Induction of cell cycle arrest in human RKO cells assessed as accumulation of cells at G2/M phase incubated for 48 hrs by propidium iodide staining based flow cytometry; format: functional
BaF3 = assay: Antiproliferative activity against mouse BaF3 transfected with FGFR4 assessed as inhibition of cell growth incubated for 72 hrs by CCK-8 assay; format: toxicity, cell-based; settings: BaF3, 72 h
SW480 [39] = assay: Anti-migration activity in human SW480 cells assessed as downregulation of FAK phosphorylation by Western blotting analysis; format: functional, cell-based
SW480 [40] = assay: Induction of cell cycle arrest in human SW480 cells assessed as accumulation of cells at G2/M phase incubated for 48 hrs by propidium iodide staining based flow cytometry; format: functional

C=CC(=O)NCCCn1c(=O)c(-c2c(Cl)c(OC)cc(OC)c2Cl)cc2cnc(Nc3c(C)cccc3NC(=O)C=C)cc21
Activity (HCT-116 [1]): Active | Activity (HCT-116 [2]): Active | Activity [3]: Non-Toxic | Activity [4]: Non-Toxic | Activity (HCT-116 [5]): Dose-Dependent Effect | IC50 (HCT-116 [6]): 4240 nM | Activity [7]: Non-Toxic | Activity [8]: Non-Toxic | Activity (HCT-116 [9]): Dose-Dependent Effect | Activity (SW480 [10]): Dose-Dependent Effect | Activity [11]: Non-Toxic | Activity (HCT-116 [12]): Active | Activity (RKO [13]): Dose-Dependent Effect | Activity [14]: Non-Toxic | inhibition in vivo at 20 mg/kg (HCT-116 [15]): 70.5% | Activity [16]: Non-Toxic | Activity (SW480 [17]): Active | Activity (SW480 [18]): Active | Activity (HCT-116 [19]): Dose-Dependent Effect | Activity [20]: Non-Toxic | Activity [21]: Non-Toxic | Activity [22]: Non-Toxic | Activity [23]: Non-Toxic | Activity [24]: Non-Toxic | Activity (HCT-116 [25]): Dose-Dependent Effect | Activity [26]: Non-Toxic | Activity [27]: Non-Toxic | Activity [28]: Non-Toxic | Activity [29]: Non-Toxic | Activity [30]: Non-Toxic | Drug uptake [31]: Active | Activity (SW480 [32]): Active | Activity [33]: Non-Toxic | Activity (SW480 [34]): inactive | Activity (HCT-116 [35]): Dose-Dependent Effect | Activity (HCT-116 [36]): Active | Activity (RKO [37]): Active | Activity (RKO [38]): Dose-Dependent Effect | IC50 (BaF3): 9.48 nM | Activity (SW480 [39]): Dose-Dependent Effect | Activity (SW480 [40]): Dose-Dependent Effect
